Test results from US20250059182A1, “SOS1 INHIBITORS” (Mirati Therapeutics, Inc., priority 2021, published 2025).
Counter-ions that a name gives are not always drawn. Like-named read-outs stand apart in the source and are kept apart here.

Columns and labels:
[1] = molecular target: T1, recombinant human SOS1 polypeptide (amino acids 560-1049) (Homo sapiens, UniProt Q07889); test: HTRF displacement assay: inhibition of labeled tracer binding to SOS1; conditions: Table A1, Morrison equation for competitive binding
T1 construct: corresponding to amino acids 560-1049, expressed in E. Coli; made in house; host or cells: E. coli
T1 sequence (Q07889 560-1049): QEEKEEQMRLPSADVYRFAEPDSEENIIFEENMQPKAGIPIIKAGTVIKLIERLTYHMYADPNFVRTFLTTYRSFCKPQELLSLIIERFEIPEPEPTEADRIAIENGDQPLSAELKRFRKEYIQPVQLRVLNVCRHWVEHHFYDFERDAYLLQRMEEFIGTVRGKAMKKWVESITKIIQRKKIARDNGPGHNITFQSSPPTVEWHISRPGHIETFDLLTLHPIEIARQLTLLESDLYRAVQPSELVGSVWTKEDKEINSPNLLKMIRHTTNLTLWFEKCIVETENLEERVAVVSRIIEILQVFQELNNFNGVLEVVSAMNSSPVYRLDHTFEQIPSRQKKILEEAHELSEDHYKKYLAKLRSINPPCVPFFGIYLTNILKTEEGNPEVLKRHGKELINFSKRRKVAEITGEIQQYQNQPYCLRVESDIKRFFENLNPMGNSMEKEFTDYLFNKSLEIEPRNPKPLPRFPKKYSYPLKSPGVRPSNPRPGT

[2] = tested on: pERK in MKN1 cells; test: pERK inhibition, In-Cell Western (LI-COR Odyssey), MKN1 cells; format: cell-based; conditions: Homo sapiens
Procedure, shortened: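 IC50 was fitted from % pERK inhibition, calculated as the GAPDH-normalised pERK signal of each well divided by the vehicle mean. Signal was imaged at 700 and 800 nm after fixation, methanol permeabilisation and dual antibody staining. Before fixation, MKN1 cells had received compound for about 0.5–1 h at 37 °C, top concentration 10 µM, nine 3-fold dilutions.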

[3] = MKN-1, Table B1, MKN1 or H358 cells (table does not say which), 0.5-1 hour incubation, read-out: IC50 (nM), pERK inhibition
[4] = MKN-1, read-out: IC50 (nM), pERK inhibition

`Cc1c(C#N)cccc1[C@@H](C)Nc1nnc(C)c2c(C)nc(N3CCN(C)C(C)(C)C3)cc12` [Example P-191, (R)-3-(1-((4,5-dimethyl-7-(3,3,4-trimethylpiperazin-1-yl)pyrido[3,4-d]pyridazin-1-yl)amino)ethyl)-2-methylbenzonitrile] was tested, and the Ki [1] was 0.892 nM and the IC50 [2, 3] was 26 nM.
For `Cc1c(C#N)cccc1[C@@H](C)Nc1nnc(C)c2c(C)nc(N3C[C@H]4C[C@@H]3CN4C)cc12` [Example P-192, 3-((R)-1-((4,5-dimethyl-7-((1R,4R)-5-methyl-2,5-diazabicyclo[2.2.1]heptan-2-yl)pyrido[3,4-d]pyridazin-1-yl)amino)ethyl)-2-methylbenzonitrile], the Ki [1] was 2.93 nM and the IC50 [2, 3] was 104 nM.
Molecule `Cc1c(C#N)cccc1[C@@H](C)Nc1nnc(C)c2cc(Cl)c(N(C)[C@H]3CCN(C)C3)cc12` [Example P-193, 3-((R)-1-((6-chloro-4-methyl-7-(methyl((S)-1-methylpyrrolidin-3-yl)amino)phthalazin-1-yl)amino)ethyl)-2-methylbenzonitrile] has a Ki [1] of 1.47 nM and an IC50 [2, 3] of 512 nM.
`Cc1c(C#N)cccc1[C@@H](C)Nc1nnc(C)c2cc(Cl)c(N(C)[C@@H]3CCN(C)C3)cc12` [Example P-194, 3-((R)-1-((6-chloro-4-methyl-7-(methyl((R)-1-methylpyrrolidin-3-yl)amino)phthalazin-1-yl)amino)ethyl)-2-methylbenzonitrile] gave a Ki [1] of 5.27 nM and an IC50 [2, 3] of 231 nM.
Molecule `Cc1c(C#N)cccc1[C@@H](C)Nc1nnc(C)c2cc(Cl)c(N(C)C)cc12` [Example P-195, (R)-3-(1-((6-chloro-7-(dimethylamino)-4-methylphthalazin-1-yl)amino)ethyl)-2-methylbenzonitrile formic acid salt] has a Ki [1] of 154 nM and an IC50 [2, 4] of 7130 nM.
In the case of `Cc1c(C#N)cccc1[C@@H](C)Nc1nnc(C)c2cc(Cl)c(N(C)C[C@H]3CCCN3C)cc12` [Example P-196, 3-((R)-1-((6-chloro-4-methyl-7-(methyl(((R)-1-methylpyrrolidin-2-yl)methyl)amino)phthalazin-1-yl)amino)ethyl)-2-methylbenzonitrile formic acid salt], the Ki [1] is reported as 5.98 nM and the IC50 [2, 4] is reported as 584 nM.
Work on `Cc1c(C#N)cccc1[C@@H](C)Nc1nnc(C)c2cc(Cl)c(N3CCS(=O)(=O)CC3)cc12` [Example P-197, (R)-3-(1-((6-chloro-7-(1,1-dioxidothiomorpholino)-4-methylphthalazin-1-yl)amino)ethyl)-2-methylbenzonitrile] yielded a Ki [1] of 8.97 nM and an IC50 [2, 3] of 204 nM.
With `Cc1c(C#N)cccc1[C@@H](C)Nc1nnc(C)c2cc(Cl)c(N3CCC34CN(C)C4)cc12` [Example P-198, (R)-3-(1-((6-chloro-4-methyl-7-(6-methyl-1,6-diazaspiro[3.3]heptan-1-yl)phthalazin-1-yl)amino)ethyl)-2-methylbenzonitrile] the Ki [1] was 1.1 nM and the IC50 [2, 3] was 182 nM.
With `Cc1nnc(N[C@H](C)c2cccc(C(C)(F)F)c2F)c2cc(N(C)[C@@H]3CCN(C)C3)ncc12` [Example P-199, N1-((R)-1-(3-(1,1-difluoroethyl)-2-fluorophenyl)ethyl)-N7,4-dimethyl-N7-((R)-1-methylpyrrolidin-3-yl)pyrido[3,4-d]pyridazine-1,7-diamine] the Ki [1] was 0.321 nM and the IC50 [2, 3] was 59.1 nM.
In the case of `Cc1nnc(N[C@H](C)c2cccc(C(C)(F)F)c2F)c2cc(N(C)[C@H]3CCN(C)C3)ncc12` [Example P-200, N1-((R)-1-(3-(1,1-difluoroethyl)-2-fluorophenyl)ethyl)-N7,4-dimethyl-N7-((S)-1-methylpyrrolidin-3-yl)pyrido[3,4-d]pyridazine-1,7-diamine], the Ki [1] is reported as 0.517 nM and the IC50 [2, 3] is reported as 6.77 nM.
`Cc1c(C#N)cccc1[C@@H](C)Nc1nnc(C)c2cnc(N3CCOCC34CN(C)C4)cc12` [Example P-211, (R)-2-methyl-3-(1-((4-methyl-7-(2-methyl-8-oxa-2,5-diazaspiro[3.5]nonan-5-yl)pyrido[3,4-d]pyridazin-1-yl)amino)ethyl)benzonitrile] gave a Ki [1] of 13.4 nM and an IC50 [2, 3] of 503 nM.
Molecule `Cc1ccccc1[C@@H](C)Nc1nnc(C)c2cnc(N3CCOCC3)cc12` [Example P-212, (R)-4-methyl-7-morpholino-N-(1-(o-tolyl)ethyl)pyrido[3,4-d]pyridazin-1-amine] has a Ki [1] of 54.8 nM and an IC50 [2, 3] of 894 nM.
`Cc1c(Br)cccc1[C@@H](C)Nc1nnc(C)c2cc(F)c(N3CCC34CN(C)C4)cc12` [Example P-214, (R)-N-(1-(3-bromo-2-methylphenyl)ethyl)-6-fluoro-4-methyl-7-(6-methyl-1,6-diazaspiro[3.3]heptan-1-yl)phthalazin-1-amine] gave a Ki [1] of 0.262 nM and an IC50 [2, 3] of 156 nM.
For `CC(=O)N1CC2(CCN2c2cc3c(N[C@H](C)c4cccc(C#N)c4C)nnc(C)c3cn2)C1` [Example P-215, (R)-3-(1-((7-(6-acetyl-1,6-diazaspiro[3.3]heptan-1-yl)-4-methylpyrido[3,4-d]pyridazin-1-yl)amino)ethyl)-2-methylbenzonitrile], the Ki [1] was 2.23 nM and the IC50 [2, 3] was 38.7 nM.
For `CC(=O)N1CC2(CCN2c2cc3c(N[C@H](C)c4cccc(C#N)c4C)nnc(C)c3cc2F)C1` [Example P-216, (R)-3-(1-((7-(6-acetyl-1,6-diazaspiro[3.3]heptan-1-yl)-6-fluoro-4-methylphthalazin-1-yl)amino)ethyl)-2-methylbenzonitrile formic acid salt], the Ki [1] was 1.98 nM and the IC50 [2, 4] was 27.9 nM.
In the case of `COCCN1CC2(CCN2c2cc3c(N[C@H](C)c4cccc(C#N)c4C)nnc(C)c3cn2)C1` [Example P-217, (R)-3-(1-((7-(6-(2-methoxyethyl)-1,6-diazaspiro[3.3]heptan-1-yl)-4-methylpyrido[3,4-d]pyridazin-1-yl)amino)ethyl)-2-methylbenzonitrile formic acid salt], the Ki [1] is reported as 0.762 nM and the IC50 [2, 4] is reported as 43.1 nM.
In the case of `COCCN1CC2(CCN2c2cc3c(N[C@H](C)c4cccc(C#N)c4C)nnc(C)c3cc2F)C1` [Example P-218, (R)-3-(1-((6-fluoro-7-(6-(2-methoxyethyl)-1,6-diazaspiro[3.3]heptan-1-yl)-4-methylphthalazin-1-yl)amino)ethyl)-2-methylbenzonitrile formic acid salt], the Ki [1] is reported as 0.786 nM and the IC50 [2, 4] is reported as 60.3 nM.
`Cc1c(C#N)cccc1[C@@H](C)Nc1nnc(C)c2cc(F)c(N3CCC34CN(CCO)C4)cc12` [Example P-219, (R)-3-(1-((6-fluoro-7-(6-(2-hydroxyethyl)-1,6-diazaspiro[3.3]heptan-1-yl)-4-methylphthalazin-1-yl)amino)ethyl)-2-methylbenzonitrile] showed a Ki [1] of 0.665 nM and an IC50 [2, 3] of 41.1 nM.
`Cc1c(C#N)cccc1[C@@H](C)Nc1nnc(C)c2cc(F)c(N3CCC34CN(CCC(=O)O)C4)cc12` [Example P-220, (R)-3-(1-(4-((1-(3-cyano-2-methylphenyl)ethyl)amino)-7-fluoro-1-methylphthalazin-6-yl)-1,6-diazaspiro[3.3]heptan-6-yl)propanoic acid] was tested, and the Ki [1] was 0.678 nM and the IC50 [2, 3] was 4110 nM.
Molecule `CNc1cc2c(N[C@H](C)c3cccc(C#N)c3C)nnc(C)c2cc1F` [Example P-221, (R)-3-(1-((6-fluoro-4-methyl-7-(methylamino)phthalazin-1-yl)amino)ethyl)-2-methylbenzonitrile] has a Ki [1] of 8.75 nM and an IC50 [2, 3] of 154 nM.
In the case of `Cc1c(C#N)cccc1[C@@H](C)Nc1nnc(C)c2cc(F)c(N(C)C)cc12` [Example P-222, (R)-3-(1-((7-(dimethylamino)-6-fluoro-4-methylphthalazin-1-yl)amino)ethyl)-2-methylbenzonitrile], the Ki [1] is reported as 3.97 nM and the IC50 [2, 3] is reported as 188 nM.
In the case of `Cc1c(C#N)cccc1[C@@H](C)Nc1nnc(C)c2cc(F)c(N3CCC3)cc12` [Example P-223, (R)-3-(1-((7-(azetidin-1-yl)-6-fluoro-4-methylphthalazin-1-yl)amino)ethyl)-2-methylbenzonitrile formic acid salt], the Ki [1] is reported as 9.3 nM and the IC50 [2, 4] is reported as 141 nM.
`Cc1c(C#N)cccc1[C@@H](C)Nc1nnc(C)c2cnc(N3CCC3)cc12` [Example P-224, (R)-3-(1-((7-(azetidin-1-yl)-4-methylpyrido[3,4-d]pyridazin-1-yl)amino)ethyl)-2-methylbenzonitrile] showed a Ki [1] of 3.62 nM and an IC50 [2, 3] of 41.4 nM.
`Cc1nnc(N[C@H](C)c2cccc(C(F)F)c2F)c2cc(N3CCC34CN(CCCF)C4)ncc12` [Example P-226, (R)-N-(1-(3-(difluoromethyl)-2-fluorophenyl)ethyl)-7-(6-(3-fluoropropyl)-1,6-diazaspiro[3.3]heptan-1-yl)-4-methylpyrido[3,4-d]pyridazin-1-amine formic acid salt] gave a Ki [1] of 0.288 nM and an IC50 [2, 4] of 62.3 nM.
For `Cc1nnc(N[C@H](C)c2cccc(C(F)F)c2F)c2cc(N3CCN(CCCF)CC3)ncc12` [Example P-227, (R)-N-(1-(3-(difluoromethyl)-2-fluorophenyl)ethyl)-7-(4-(3-fluoropropyl)piperazin-1-yl)-4-methylpyrido[3,4-d]pyridazin-1-amine], the Ki [1] was 0.396 nM and the IC50 [2, 3] was 223 nM.
